Assays:
[1] = system: murine colon cancer cell line CT26; experiment: Antitumor activity of combination use of anti-PD-1 antibody and TLR7 agonist (tumor volume); type: in vivo; settings: CT26 in Balb/c mice, until 23rd day; Compound 1 5 mg/kg iv once a week, anti-PD-1 antibody 200 μg ip twice a week; versus vehicle administration group
Experimental: 1×10^6 Cells of murine colon cancer cell line CT26 (ATCC) were transplanted to the ventral flank of 48 female 6-week-old Balb/c mice. Five days later, the mice were divided into four groups. In vehicle administration group, saline was intravenously administered once a week, and 200 μg of Rat IgG2a isotype control antibody (Bioxcell) was intraperitoneally administered twice a week. In TLR7 agonist administration group, a TLR7 agonist, N-{4-[(2-amino-4-{[(3S)-1-hydroxyhexan-3-yl]amino}-6-methylpyrimidin-5-yl)methyl]-3-methoxybenzyl}-N-(2,2,2-trifluoroethyl)glycine (hereinafter, referred to as “Compound 1”) was administered into a vein in a dose of 5 mg/kg once a week, and 200 μg of Rat IgG2a isotype control antibody (Bioxcell) was intraperitoneally administered twice a week. In anti-PD-1 antibody administration group, 200 μg of anti-PD-1 antibody (Bioxcell) was intraperitoneally administered twice a week. In combination group of Compound 1 and anti-PD-1 antibody, Compound 1 was intravenously administered in a dose of 5 mg/kg once a week, and 200 μg of anti-PD-1 antibody (Bioxcell) was intraperitoneally administered twice a week. After the transplantation of the tumor cell, the tumor volume was measured twice a week, and the body weight was checked once a week until the 23rd day. […]

MHC class I (H-2Kd) = MHC class I (H-2Kd) on tumor by flow cytometry (anti-PD-1 study); type: in vivo, Balb/c mice; settings: tumor on 23rd day, CD45-negative H-2Kd-positive fraction; Compound 1 5 mg/kg iv, anti-PD-1 antibody 200 μg ip
Experimental: 1×10^6 Cells of murine colon cancer cell line CT26 (ATCC) were transplanted to the ventral flank of 48 female 6-week-old Balb/c mice. Five days later, the mice were divided into four groups. In vehicle administration group, saline was intravenously administered once a week, and 200 μg of Rat IgG2a isotype control antibody (Bioxcell) was intraperitoneally administered twice a week. In Compound 1 administration group, Compound 1 was intravenously administered in a dose of 5 mg/kg once a week, and 200 μg of Rat IgG2a isotype control antibody (Bioxcell) was intraperitoneally administered twice a week. In anti-PD-1 antibody administration group, 200 μg of anti-PD-1 antibody (Bioxcell) was intraperitoneally administered twice a week. In combination group of Compound 1 and anti-PD-1 antibody, Compound 1 was intravenously administered in a dose of 5 mg/kg once a week, and 200 μg of anti-PD-1 antibody (Bioxcell) was intraperitoneally administered twice a week. After the transplantation of the tumor cell, the tumor was picked out on the 23rd day, and a cell suspension of the tumor was prepared by using a tumor dissociation kit (Miltenyi) and a gentle macs dissociater (Miltenyi). The cell suspension was stained with fluoresceinated anti-CD45 antibody and anti-H-2Kd antibody, and H-2Kd on the cancer cell was detected as CD45-negative and H-2Kd-positive fractions by flow cytometry method.

effector memory T cell [2] = experiment: Ratio of effector memory T cell in CD8-positive tumor-infiltrating lymphocytes by FACS (anti-CTLA-4 study); type: in vivo, Balb/c mice; settings: tumor on 26th day, CD8+ CD62L- CD127+, compared with the vehicle administration group, Compound 1 5 mg/kg iv, anti-CTLA-4 antibody 200 μg ip
Experimental: (§1) 1×10^6 Cells of murine colon cancer cell line CT26 (ATCC) were transplanted to the ventral flank of 40 female 6-week-old Balb/c mice. Seven days later, the mice were divided into four groups. In vehicle administration group, saline was intravenously administered once a week, and 200 μg of Rat IgG2a isotype control antibody (Bioxcell) was intraperitoneally administered twice a week. In Compound 1 administration group, Compound 1 was intravenously administered in a dose of 5 mg/kg once a week, and 200 μg of Rat IgG2a isotype control antibody (Bioxcell) was intraperitoneally administered twice a week. In anti-CTLA-4 antibody administration group, 200 μg of anti-CTLA-4 antibody (Bioxcell) was intraperitoneally administered twice a week. In combination group of Compound 1 and anti-CTLA-4 antibody, Compound 1 was intravenously administered in a dose of 5 mg/kg once a week, and 200 μg of anti-CTLA-4 antibody (Bioxcell) was intraperitoneally administered twice a week. After the transplantation of the tumor cell, the tumor was picked out on the 26th day, and a cell suspension of the tumor was prepared by using a tumor dissociation kit (Miltenyi) and a gentle macs dissociater (Miltenyi). […] The obtained cell suspension was stained with fluoresceinated anti-CD8, anti-CD62L, and anti-CD127 antibodies, and analyzed by flow cytometry (FACS) method. […]

effector memory T cell [3] = experiment: Ratio of effector memory T cell in CD8-positive tumor-infiltrating lymphocytes by FACS (anti-PD-1 study); type: in vivo, Balb/c mice; settings: tumor on 23rd day, CD8+ CD62L- CD127+, compared with the vehicle administration group, Compound 1 5 mg/kg iv, anti-PD-1 antibody 200 μg ip
Experimental: as §1, with “48” for “40”, “Five” for “Seven”, “anti-PD-1” for “anti-CTLA-4”, “23rd” for “26th”, “dissociates” for “dissociater”

[4] = system: murine colon cancer cell line CT26; experiment: Antitumor activity of combination use of anti-CTLA-4 antibody and TLR7 agonist (tumor volume); type: in vivo; settings: CT26 in Balb/c mice, until 23rd day; Compound 1 5 mg/kg iv once a week, anti-CTLA-4 antibody 200 μg ip twice a week; versus vehicle administration group
Experimental: 1×10^6 Cells of murine colon cancer cell line CT26 (ATCC) were transplanted to the ventral flank of 40 female 7-week-old Balb/c mice. Seven days later, the mice were divided into four groups. In vehicle administration group, saline was intravenously administered once a week, and 200 μg of Rat IgG2a isotype control antibody (Bioxcell) was intraperitoneally administered twice a week. In TLR7 agonist administration group, Compound 1 was intravenously administered in a dose of 5 mg/kg once a week, and 200 μg of Rat IgG2a isotype control antibody (Bioxcell) was intraperitoneally administered twice a week. In anti-CTLA-antibody administration group, 200 μg of anti-CTLA-4 antibody (Bioxcell) was intraperitoneally administered twice a week. In combination group of Compound 1 and anti-CTLA-4 antibody, Compound 1 was intravenously administered in a dose of 5 mg/kg once a week, and 200 μg of anti-CTLA-4 antibody (Bioxcell) was intraperitoneally administered twice a week. After the transplantation of the tumor cell, the tumor volume was measured twice a week, and the body weight was checked once a week until the 23rd day. The tumor volume was obtained by measuring long axis and short axis of the tumor and calculating by a math formula of (short axis)×(short axis)×(long axis)×0.5.
The ordinate denotes tumor volume, and the abscissa denotes elapsed days from the transplantation of the tumor cell.

Structure (SMILES): CCC[C@@H](CCO)Nc1nc(N)nc(C)c1Cc1ccc(CN(CC(=O)O)CC(F)(F)F)cc1OC [Compound 1, N-{4-[(2-amino-4-{[(3S)-1-hydroxyhexan-3-yl]amino}-6-methylpyrimidin-5-yl)methyl]-3-methoxybenzyl}-N-(2,2,2-trifluoroethyl)glycine]
- tumor-volume variation / tumor growth inhibition [1]: tumor growth inhibition was observed
- mean fluorescent intensity (MFI) of H-2Kd (MHC class I (H-2Kd)): not so different from that of the vehicle administration group
- ratio of effector memory T cell in CD8-positive cell (effector memory T cell [2]): did not increase
- ratio of effector memory T cell in CD8-positive cell (effector memory T cell [3]): did not increase
- tumor-volume variation / tumor growth inhibition [4]: not so different from that of the vehicle administration group

— US12226480B2, “Combination drug including TLR7 agonist” (SUMITOMO PHARMA CO., LTD., priority 2017, dated 2025)
